# Activity calls are given as the source filed them. The calls are words filed in the database; no cut-off is given here.
# Experiments:
# [1] = Toxicity in NOD-SCID mouse assessed as shortening of villi in intestine at 15 to 60 mg/kg, po measured every 2 days for 21 days by H and E staining based analysis; type: organism-based; conditions: in vivo, 504 h, dose 15-60 mg/kg, time 21 day
# [2] = Toxicity in BALB/c mouse assessed as organ abnormalities at 30 to 60 mg/kg, po administered once daily for 21 days; type: organism-based; conditions: in vivo, 504 h, dose 30-60 mg/kg, time 21 day
# [3] = Cmax in male Sprague-Dawley rat plasma at 10 mg/kg, IG measured at 6 hrs by LC-MS/MS analysis; type: ADME, organism-based; conditions: po
# [4] = AUC in male Sprague-Dawley rat brain at 10 mg/kg, IG measured at 6 hrs by LC-MS/MS analysis; type: ADME, organism-based; conditions: po
# LoVo = assay: Antiproliferative activity against human LoVo cells assessed as inhibition of cell growth incubated for 72 hrs by celltiter-glo assay; type: functional, cell-based
# MM1.S [5] = assay: Induction of apoptosis in human MM1.S cells assessed as increase in FOXO3A signal intensity; type: functional, cell-based
# HCT-116 = assay: Antiproliferative activity against human HCT-116 cells assessed as inhibition of cell growth incubated for 72 hrs by celltiter-glo assay; type: functional, cell-based; conditions: HCT-116, 72 h
# [6] = AUC (0 to infinity) in male Sprague-Dawley rat at 10 mg/kg, po measured upto 30 hrs by LC-MS/MS analysis; type: ADME, organism-based; conditions: in vivo
# [7] = Tmax in male Sprague-Dawley rat at 15 mg/kg, po measured upto 30 hrs by LC-MS/MS analysis; type: ADME, organism-based; conditions: in vivo
# MM1.S [8] = assay: Antiproliferative activity against human MM1.S cells assessed as inhibition of cell growth incubated for 72 hrs by celltiter-glo assay; type: functional, cell-based
# [9] = Oral bioavailability in male Sprague-Dawley rat at 10 mg/kg measured upto 30 hrs by LC-MS/MS analysis; type: ADME, organism-based; conditions: in vivo
# [10] = target: Exportin-1 (Homo sapiens) (UniProt O14980); assay: Reversible competitive inhibition of human recombinant CRM1 at 2 uM incubated for 2 hrs in presence of 3-(1-((E)-3-(methoxyamino)-3-oxo-2-(pyrimidin-5-yl)prop-1-en-1-yl)-1H-1,2,4-triazol-3-yl)-5-(trifluoromethyl)phenyl 3-(5-((3aS,4S,6aR)-2-oxohexahydro-1H-thieno[3,4-d]imidazol-4-yl)pentanamido)propanoate by pull down based Western blot analysis
# Chain of Exportin-1 (Homo sapiens) (O14980 whole entry): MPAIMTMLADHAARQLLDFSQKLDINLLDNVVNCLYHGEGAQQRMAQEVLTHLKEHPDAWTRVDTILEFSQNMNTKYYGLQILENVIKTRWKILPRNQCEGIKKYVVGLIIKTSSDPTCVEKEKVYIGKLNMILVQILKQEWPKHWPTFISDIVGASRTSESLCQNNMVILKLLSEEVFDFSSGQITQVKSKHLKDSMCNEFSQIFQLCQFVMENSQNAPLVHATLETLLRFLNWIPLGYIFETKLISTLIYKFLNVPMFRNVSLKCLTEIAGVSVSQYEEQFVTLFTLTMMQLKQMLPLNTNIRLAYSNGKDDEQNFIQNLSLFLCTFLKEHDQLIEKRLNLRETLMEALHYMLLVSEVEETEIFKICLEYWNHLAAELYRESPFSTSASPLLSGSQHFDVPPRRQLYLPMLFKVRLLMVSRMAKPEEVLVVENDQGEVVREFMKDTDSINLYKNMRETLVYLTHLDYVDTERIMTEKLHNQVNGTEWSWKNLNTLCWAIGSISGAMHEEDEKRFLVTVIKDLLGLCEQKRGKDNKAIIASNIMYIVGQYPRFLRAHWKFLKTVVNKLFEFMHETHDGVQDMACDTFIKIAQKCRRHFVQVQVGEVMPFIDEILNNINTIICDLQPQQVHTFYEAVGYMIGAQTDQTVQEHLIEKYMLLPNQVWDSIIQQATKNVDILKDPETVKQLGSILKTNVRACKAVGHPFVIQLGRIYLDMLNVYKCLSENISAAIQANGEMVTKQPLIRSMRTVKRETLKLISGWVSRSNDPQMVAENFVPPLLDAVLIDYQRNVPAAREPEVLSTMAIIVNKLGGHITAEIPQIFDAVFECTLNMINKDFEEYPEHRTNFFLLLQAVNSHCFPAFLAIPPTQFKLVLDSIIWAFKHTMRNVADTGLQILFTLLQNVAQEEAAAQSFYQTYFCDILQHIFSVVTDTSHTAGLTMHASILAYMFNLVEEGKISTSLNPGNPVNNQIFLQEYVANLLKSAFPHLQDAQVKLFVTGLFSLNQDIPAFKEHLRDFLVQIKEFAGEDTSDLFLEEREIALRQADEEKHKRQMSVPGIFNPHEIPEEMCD
# MM1.S [11] = assay: Antitumor activity against human MM1.S cells xenografted in NOD-SCID mouse assessed as tumor growth inhibition at 60 mg/kg, po qd measured upto 21 days; type: functional; conditions: 504 h, time <= 21 day, read-out: TGI
# [12] = Toxicity in BALB/c mouse assessed as weight loss at 60 mg/kg, po administered once daily for 21 days; type: organism-based; conditions: in vivo, 504 h, time 21 day
# ARH-77 = assay: Antiproliferative activity against human ARH-77 cells assessed as inhibition of cell growth incubated for 72 hrs by celltiter-glo assay; type: functional, cell-based; conditions: ARH-77, 72 h
# [13] = Metabolic stability in human liver microsomes assessed as half life measured upto 60 mins in presence of NADPH by LC/MS-MS analysis; type: ADME, Microsome
# [14] = Metabolic stability in monkey liver microsomes assessed as intrinsic clearance measured upto 60 mins in presence of NADPH by LC/MS-MS analysis; type: ADME, Macaca mulatta, Microsome; conditions: rhesus monkey, read-out: CLH
# [15] = AUC in male Sprague-Dawley rat plasma at 10 mg/kg, IG measured at 6 hrs by LC-MS/MS analysis; type: ADME, organism-based; conditions: po
# [16] = AUC (0 to infinity) in male Sprague-Dawley rat at 30 mg/kg, po measured upto 30 hrs by LC-MS/MS analysis; type: ADME, organism-based; conditions: in vivo
# [17] = Metabolic stability in rat liver microsomes assessed as intrinsic clearance measured upto 60 mins in presence of NADPH by LC/MS-MS analysis; type: ADME, Microsome; conditions: read-out: CLH
# [18] = target: Voltage-gated inwardly rectifying potassium channel KCNH2 (Homo sapiens, UniProt Q12809); assay: Inhibition of hERG in HEK293 cells; type: toxicity, cell-based
# Chain of Voltage-gated inwardly rectifying potassium channel KCNH2 (Q12809 whole entry): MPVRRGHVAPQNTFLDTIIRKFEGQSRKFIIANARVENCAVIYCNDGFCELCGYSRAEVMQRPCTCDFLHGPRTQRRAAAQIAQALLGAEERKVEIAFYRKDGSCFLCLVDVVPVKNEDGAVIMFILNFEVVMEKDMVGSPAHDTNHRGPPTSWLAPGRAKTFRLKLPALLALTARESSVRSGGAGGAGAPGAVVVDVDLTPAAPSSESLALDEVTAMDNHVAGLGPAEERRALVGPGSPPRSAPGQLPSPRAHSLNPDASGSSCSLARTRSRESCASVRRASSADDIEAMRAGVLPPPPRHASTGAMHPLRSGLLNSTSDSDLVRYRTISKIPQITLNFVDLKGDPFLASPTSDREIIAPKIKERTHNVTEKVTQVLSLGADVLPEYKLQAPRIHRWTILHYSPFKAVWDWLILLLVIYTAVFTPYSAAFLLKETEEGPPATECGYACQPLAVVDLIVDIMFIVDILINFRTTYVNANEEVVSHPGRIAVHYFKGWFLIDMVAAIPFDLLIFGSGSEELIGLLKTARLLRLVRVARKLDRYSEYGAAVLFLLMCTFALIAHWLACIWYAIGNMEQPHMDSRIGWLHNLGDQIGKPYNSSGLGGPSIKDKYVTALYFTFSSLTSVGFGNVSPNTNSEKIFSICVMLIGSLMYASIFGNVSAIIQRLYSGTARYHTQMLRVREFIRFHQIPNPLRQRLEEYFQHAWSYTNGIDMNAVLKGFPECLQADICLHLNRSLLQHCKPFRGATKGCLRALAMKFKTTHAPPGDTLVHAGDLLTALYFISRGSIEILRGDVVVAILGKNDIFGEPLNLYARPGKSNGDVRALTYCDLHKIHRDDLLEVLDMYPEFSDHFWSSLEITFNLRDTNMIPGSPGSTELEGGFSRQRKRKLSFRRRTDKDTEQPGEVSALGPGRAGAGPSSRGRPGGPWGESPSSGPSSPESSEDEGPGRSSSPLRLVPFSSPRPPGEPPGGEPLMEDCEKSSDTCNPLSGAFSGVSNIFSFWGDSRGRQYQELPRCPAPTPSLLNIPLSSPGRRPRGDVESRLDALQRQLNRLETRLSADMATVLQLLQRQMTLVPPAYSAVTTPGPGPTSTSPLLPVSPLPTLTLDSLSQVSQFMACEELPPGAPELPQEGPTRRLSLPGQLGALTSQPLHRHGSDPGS
# MM1.S [19] = assay: Induction of apoptosis in human MM1.S cells assessed as increase in p53 level at 0.5 to 1 uM incubated for 48 hrs by Western blot analysis; type: functional, cell-based; conditions: dose 0.5-1 µM
# [20] = Toxicity in NOD-SCID mouse assessed as appearance of large nucleus in tumor at 60 mg/kg, po measured every 2 days for 21 days by H and E staining based analysis; type: organism-based; conditions: in vivo, 504 h, time 21 day
# [21] = Toxicity in NOD-SCID mouse assessed as appearance of spindle shape in tumor at 60 mg/kg, po measured every 2 days for 21 days by H and E staining based analysis; type: organism-based; conditions: in vivo, 504 h, time 21 day
# MM1.S [22] = assay: Antitumor activity against human MM1.S cells xenografted in NOD-SCID mouse assessed as tumor growth inhibition at 30 mg/kg, po qd measured upto 21 days; type: functional; conditions: 504 h, time <= 21 day, read-out: TGI
# [23] = AUC (0 to t) in male Sprague-Dawley rat at 15 mg/kg, po measured upto 30 hrs by LC-MS/MS analysis; type: ADME, organism-based; conditions: in vivo
# MM1.S [24] = assay: Induction of apoptosis in human MM1.S cells at 0.5 to 1 uM incubated for 48 hrs by Annexin V-FITC/PI staining based flow cytometry analysis; type: functional, cell-based; conditions: dose 0.5-1 µM
# [25] = target: Exportin-1 (Homo sapiens) (UniProt O14980); assay: Reversible binding affinity to CRM1 in human U2OS cells incubated for 4 hrs by DAPI staining based fluorescence microscopic analysis; type: cell-based
# [26] = Half life in male Sprague-Dawley rat at 30 mg/kg, po measured upto 30 hrs by LC-MS/MS analysis; type: ADME, organism-based; conditions: in vivo
# [27] = Toxicity in NOD-SCID mouse assessed as reduction in number of tumor cells at 60 mg/kg, po measured every 2 days for 21 days by H and E staining based analysis; type: organism-based; conditions: in vivo, 504 h, time 21 day
# [28] = Oral bioavailability in male Sprague-Dawley rat at 15 mg/kg measured upto 30 hrs by LC-MS/MS analysis; type: ADME, organism-based; conditions: in vivo
# [29] = Half life in male Sprague-Dawley rat at 2 mg/kg, iv measured upto 30 hrs by LC-MS/MS analysis; type: ADME, organism-based; conditions: in vivo
# [30] = Toxicity in BALB/c mouse assessed as side effect at 60 mg/kg, po administered once daily for 21 days; type: organism-based; conditions: in vivo, 504 h, time 21 day
# RPMI-8226 = assay: Antiproliferative activity against human RPMI-8226 cells assessed as inhibition of cell growth incubated for 72 hrs by celltiter-glo assay; type: functional, cell-based; conditions: RPMI-8226, 72 h
# [31] = Tmax in male Sprague-Dawley rat at 30 mg/kg, po measured upto 30 hrs by LC-MS/MS analysis; type: ADME, organism-based; conditions: in vivo
# [32] = Cmax in male Sprague-Dawley rat at 10 mg/kg, po measured upto 30 hrs by LC-MS/MS analysis; type: ADME, organism-based; conditions: in vivo
# BXPC-3 = assay: Antiproliferative activity against human BXPC-3 cells assessed as inhibition of cell growth incubated for 72 hrs by celltiter-glo assay; type: functional, cell-based; conditions: BXPC-3, 72 h
# AN3-CA = assay: Antiproliferative activity against human AN3-CA cells assessed as inhibition of cell growth incubated for 72 hrs by celltiter-glo assay; type: functional, cell-based
# [33] = Toxicity in NOD-SCID mouse assessed as hyperplasia of crypt in intestine at 15 to 60 mg/kg, po measured every 2 days for 21 days by H and E staining based analysis; type: organism-based; conditions: in vivo, 504 h, dose 15-60 mg/kg, time 21 day
# [34] = Metabolic stability in human liver microsomes assessed as intrinsic clearance measured upto 60 mins in presence of NADPH by LC/MS-MS analysis; type: ADME, Microsome; conditions: read-out: CLH
smiles,measurement,setting,value
CONC(=O)/C(=C/n1cnc(-c2cc(C(F)(F)F)cc(C(F)(F)F)c2)n1)c1cncnc1,Activity,[1],Non-toxic
same,Activity,[2],Non-toxic
same,Cmax,[3],0.0189 µg/mL
same,AUC at 6 h,[4],0.378 µg·h/mL
same,IC50,LoVo,2.04 µM
same,Activity,MM1.S [5],Active
same,IC50,HCT-116,0.435 µM
same,AUC(0-inf),[6],4.18 µg·h/mL
same,Tmax,[7],0.25 h
same,IC50,MM1.S [8],0.0871 µM
same,bioavailability,[9],56%
same,inhibition,[10],Active
same,inhibition in vivo at 60 mg/kg,MM1.S [11],87%
same,Activity,[12],Non-toxic
same,IC50,ARH-77,0.304 µM
same,half-life,[13],> 2 h
same,microsomal CLint,[14],8.6 µL/min/mg
same,AUC at 6 h,[15],2.48 µg·h/mL
same,AUC(0-inf),[16],10.4 µg·h/mL
same,microsomal CLint,[17],7.2 µL/min/mg
same,IC50,[18],18.9 µM
same,Activity,MM1.S [19],Active
same,Activity,[20],Non-toxic
same,Activity,[21],Non-toxic
same,inhibition in vivo at 30 mg/kg,MM1.S [22],86.6%
same,AUC(0-t) at 30 h,[23],5.08 µg·h/mL
same,Activity,MM1.S [24],Active
same,Activity,[25],Active
same,half-life,[26],3.6 h
same,Activity,[27],Non-toxic
same,bioavailability,[28],52.1%
same,half-life,[29],4.2 h
same,Activity,[30],Non-toxic
same,IC50,RPMI-8226,0.304 µM
same,Tmax,[31],0.3 h
same,Cmax,[32],0.899 µg/mL
same,IC50,BXPC-3,3.18 µM
same,IC50,AN3-CA,1.08 µM
same,Activity,[33],Non-toxic
same,microsomal CLint,[34],3.6 µL/min/mg

# From ChEMBL document CHEMBL6083277, “Discovery of SZJK-0421: A Novel Potent, Low Toxicity, Selective Second Generation of CRM1 Inhibitor for the Treatment of Both Hematological and Solid Tumors” (J Med Chem, 2024)
